What was measured:
ChR2-ESC-derived neurons = assay: Patch-clamp recording of excitatory postsynaptic currents in ChR2-ESC-derived neurons; format: cell-based, mouse; details: differentiation day 28
Source text: (§1) We first verified that ChR2-ESCs were capable of neural lineage differentiation, using a retinoic acid-based neural differentiation protocol (FIG. 8c). At differentiation day 8, 40±10% of the cells expressed the neural lineage marker nestin. By day 14, a dense network of β-3-tubulin-positive ESC-derived immature neurons could be detected, followed by expression of the mature neuronal cytoskeletal protein MAP2 and the vesicular glutamate transporter II (vGlutll).
Neuronal differentiation was performed as previously described, with modifications. ESCs were plated on matrigel-coated dishes in embryoid body stage in complete ESC medium (see above). […]
For acute slice electrophysiological experiments, 1 week post cell transplantation, 250 μm cortical slices were prepared in ice-cold cutting buffer (64 mM NaCl, 25 mM NaHCO3, 10 mM glucose, 120 mM sucrose, 2.5 mM KCl, 1.25 mM NaH2PO4, 0.5 mM CaCl2 and 7 mM MgCl2, equilibrated with 95% O2/5% CO2) using a vibratome (VT 1000 S; Leica). […] Images were recorded with a CCD camera (Retiga Exi, Qimaging) by Qimaging software. […] Membrane currents were measured with the patch-clamp technique in whole-cell mode using Axon Multiclamp 700B (Axon Instruments) amplifiers. […] Through a 20× objective lens, power density of the blue light was 8-12 mW/mm^2, measured by power meter (Newport). […]

ChR2-ESCs = assay: Retinoic acid-based neural differentiation of ChR2-ESCs, nestin expression; format: cell-based, mouse; details: differentiation day 8; retinoic acid-based neural differentiation protocol
Source text: as §1
Neuronal differentiation was performed as previously described, with modifications. ESCs were plated on matrigel-coated dishes in embryoid body stage in complete ESC medium (see above). 24 hours later, medium was changed to ESC medium lacking LIF and including 5 μM retinoic acid, and changed every second day for 5 days. As a second differentiation step, cells were incubated with neural expansion medium for 7 days consisting of N2 supplement, SHH (50 ng/ml), FGF-8b (100 ng/ml), bFGF (10 ng/ml) and ascorbic acid (200 μM, Sigma) in DMEM/F12 and changed every two days. Thereafter cells were cultured in N2 and ascorbic acid in DMEM/F12.
Cells were fixed with 4% paraformaldehyde in PBS for 30 min at room temperature. Fixation was stopped by washing cells three times with 0.1M glycine/PBS. Cells were permeabilized and blocked (4% BSA/0.4% saponin/PBS) for 30 min and incubated in primary antibody solution at 4° C. overnight. […]

N#Cc1cc2[nH]c(=O)c(=O)[nH]c2cc1[N+](=O)[O-] [CNQX]
block of excitatory postsynaptic currents (ChR2-ESC-derived neurons): blocked

CC1=C(/C=C/C(C)=C/C=C/C(C)=C/C(=O)O)C(C)(C)CCC1 [RA, retinoic acid]
cells expressing the neural lineage marker nestin (ChR2-ESCs): 40±10%

NC(CCCP(=O)(O)O)C(=O)O [D-AP5]
block of excitatory postsynaptic currents (ChR2-ESC-derived neurons): blocked

— patent publication US10711242B2, “Apparatus and methods for controlling cellular development” (The Board of Trustees of the Leland Stanford Junior …, priority 2008, dated 2020)
